54 compounds from PubChem BioAssay AID179 (DTP/NCI, 2004) can be followed below.

Several values for one entry are separate records, joined by “and”; a condition that tells them apart may be missing. Equal values may be shown once. Activity calls are given as the source filed them.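 How the source made its calls: active means compounds giving half or more protection of infected cells from virus-caused growth loss, again on retest; inactive means the rest.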

In the assay the test system is CEM cells HIV-1 protection, formazan growth assay. The experiment in a line: NCI AIDS Antiviral Assay. To be noted: for IC50: measured here: growth of uninfected CEM cells. The essentials: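 Steps: treat uninfected and HIV-1-infected human CEM cells at five drug levels; quantify growth by soluble formazan; retest any compound reaching 50% protection; classify actives from the retest.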

As for `CC1=CC(=O)C2[C@@H](C1)C1(C)C(=O)C34OC(=O)C[C@@](C)([C@H]1C(=O)[C@@H]2C)[C@]3(C)CC[C@]12C[C@@H](C)C[C@H](CN41)O2` (some centres undefined), the result was inactive.
Broadly, the EC50 is the midpoint of the concentration-response curve. The IC50 is the concentration that gives 50% inhibition. A lower IC50 goes with greater potency in that assay. Take `CCC1(CC)SCC(=O)NC1=O`: the EC50 is over 200 µM and the concentration for half-maximal inhibition (IC50) was over 200 µM.
Regarding `CCOC(=O)/C(O)=C/c1cc(OC)cc(=O)o1`, the result was inactive.
`O=C(NC12CC3CC(CC(C3)C1)C2)C(=O)c1c[nH]c2ccc(Br)cc12`: the EC50 was over 200 µM and the IC50 was 25.7 µM.
Consider `NC(CSC(c1ccccc1)(c1ccccc1)c1ccccc1)C(=O)O` (centres undefined), for which the EC50 was over 49 µM and the half-maximal inhibitory concentration (IC50) was found to be 0.813 µM.
Consider `CCOc1cc2cnc3c4cc(OC)c(OC)cc4ccc3c2cc1OC`, for which the EC50 is over 70.8 µM and the concentration for half-maximal inhibition (IC50) is 34.7 µM.
On to `Cc1ccc(N2C(=O)C(Cl)=C(Cl)C2=O)cc1`, for which the outcome was inactive.
As for `O=C(NCCCCCCCCCCNC(=O)c1cc(O)c(O)c(O)c1)c1cc(O)c(O)c(O)c1`, the EC50 is over 100 µM and the concentration for half-maximal inhibition (IC50) is 9.12 µM.
As to `COc1cccc2c1C(=O)c1c(O)c3c(c(O)c1C2=O)C[C@@](O)(C(=O)CO)C[C@@H]3OC1CC(N)C(O)C(C)O1` (some centres undefined), the EC50 was over 2.51 µM.
With `CC1(C)O[C@@H]([C@H](O)CO)[C@H](O)[C@@H](C2SCCCS2)O1`, the EC50 was over 200 µM and the half-maximal inhibitory concentration (IC50) is over 200 µM.
Turning to `C[C@]12CCC(=O)C(OC(=O)c3ccc([N+](=O)[O-])cc3)=C1CCC2=O`, the result was inactive.
Turning to `COC12C=CC(CC1)C(C)(C)C2O` (centres undefined), the EC50 was over 200 µM, the result was inactive and the IC50 was over 200 µM.
Turning to `S=c1cn[nH]c2c(Br)cccc12`, the EC50 was over 89.1 µM and the 50% inhibitory concentration (IC50) stood at 67.6 µM.
With `CCCc1nn2c(-c3ccccc3)nnc2o1`, the EC50 is over 200 µM and the half-inhibitory concentration (IC50) turned out to be 63.1 µM.
For `CC(NNC(=O)c1ccncc1)c1ccc(Cl)cc1Cl` (centres undefined) the same measures were over 200 µM and 132 µM.
Regarding `c1ccc(SCCP(CCP(c2ccccc2)c2ccccc2)c2ccccc2)cc1` (centres undefined), the EC50 was over 21.9 µM and the concentration for half-maximal inhibition (IC50) came out at 0.355 µM.
For `Nc1cc(I)c2cccnc2c1O` the same measures were over 209 µM and 1.26 µM.
For `O=CN1CCN(C=S)CC1` the same measures were over 1580 µM and over 1580 µM.
For `O=C(Cc1csc(-c2nc(CC(=O)NNc3ccccc3)cs2)n1)NNc1ccccc1` the same measures were over 145 µM and over 145 µM.
Turning to `COc1ccc2c(c1)OCc1c-2oc2ccccc2c1=O`, the EC50 was over 100 µM and the IC50 was over 100 µM.
As for `CC1(O)CC2C(CC1SCc1ccccc1)C2(C)C` (centres undefined), the EC50 is over 200 µM; the IC50 was 34.7 µM and 20 µM.
`CC(C)(C)c1cc(C(=O)/C=C/c2ccccc2)cc(C(C)(C)C)c1O`: the EC50 is over 21.4 µM and the half-maximal inhibitory concentration (IC50) is over 21.4 µM.
`COc1ccccc1/C=C1\Cc2ccccc2C1=O`: the EC50 is over 20.9 µM and the half-maximal inhibitory concentration (IC50) is over 20.9 µM.
Consider `OC(CNc1ncccn1)c1ccccc1` (centres undefined), for which the EC50 was over 200 µM and the IC50 was over 200 µM.
For `C=CCNC(=O)N(CCCC(NC(C)=O)C(=O)NCc1ccccc1)Cc1ccccc1` (centres undefined), the EC50 is over 575 µM and the IC50 was over 575 µM.
Take `N/C(=N\N=C(/N)C(F)(F)F)C(F)(F)F`: the EC50 is over 200 µM and the IC50 is over 200 µM.
Regarding `CSC(=S)Nc1cccc(C)n1`, the EC50 is over 200 µM and the IC50 came out at 102 µM.
As to `CC#CCCC1CCCCN(C(=O)OC)C1OCC` (centres undefined), the EC50 was over 933 µM and the IC50 worked out at 166 µM.
For `Cc1cn(C2CC(n3cncn3)C(C(C)O)O2)c(=O)[nH]c1=O` (centres undefined) the same measures were over 813 µM and over 813 µM.
As to `O=c1c2cccnc2ncn1CCN1CCCC1`, the outcome was inactive.
Take `CS(=O)(=O)OCC1OC(n2ccc(NC(=O)c3ccccc3)nc2=O)CC1OS(C)(=O)=O` (centres undefined): the EC50 is over 200 µM and the IC50 is over 200 µM.
Turning to `COc1cc(N/N=C/C#N)cc(OC)c1OC`, the EC50 is over 45.7 µM and the IC50 stood at 2.24 µM.
On to `CN1CCN(C(=S)N(C)C(=O)c2cccs2)CC1`, for which the EC50 was over 891 µM and the IC50 was over 891 µM.
Consider `CC12SC(C)(c3c[se]cc31)C1C(=O)N(c3ccccc3)C(=O)C12` (centres undefined), for which the result was inactive.
As for `COc1ccc(C(=O)CC(=O)C(=O)Nc2ccc(C)c(C)c2)cc1`, the EC50 was over 22.4 µM and the IC50 is over 22.4 µM.
Take `O=[N+]([O-])c1cc(Cl)ccc1S(=O)(=O)c1ccccc1`: the EC50 was over 200 µM; the IC50 is 30.2 µM and 55 µM.
`CCCC(=O)Oc1c(Cl)cc(C(=CCC[C@H]2CC[C@@]3(C)[C@@H](CC[C@@H]4[C@@H]3CC[C@]3(C)[C@@H]([C@H](C)CCCC(C)C)CC[C@@H]43)C2)c2cc(Cl)c(OC(=O)CCC)c(C(=O)O)c2)cc1C(=O)O`: the EC50 is 79.4 µM and the half-maximal inhibitory concentration (IC50) is over 100 µM.
For `C/C=C/CC(S(=O)(=O)c1ccccc1)S(=O)(=O)c1ccccc1` the same measures were over 100 µM and over 100 µM.
For `Cc1ccc(NC(=O)c2cc3c(cc2Cl)Sc2nccn2S3(=O)=O)cc1` the same measures were over 200 µM and 61.7 µM.
Turning to `COC(=O)NC1=Nc2ccccc2-c2ccccc2N1`, the EC50 was over 200 µM and the concentration for half-maximal inhibition (IC50) was 123 µM.
As to `CCOC(=O)C1CC(C(=O)c2ccccc2)N2c3ccccc3-c3ccccc3C12` (centres undefined), the EC50 was over 200 µM and the concentration for half-maximal inhibition (IC50) stood at 8.51 µM.
For `COc1ccc(CCNC(=O)/C(=C\c2ccc3c(c2)OCO3)NC(=O)c2ccccc2)cc1OC` the same measures were over 200 µM and over 200 µM.
Consider `Clc1ccccc1C1=NN(c2ccccc2)C2c3ccccc3OCC12` (centres undefined), for which the EC50 is over 72.4 µM and the IC50 was over 72.4 µM.
As for `Cn1c(=O)oc2cc(C(=S)N3CCC(Cc4ccccc4)CC3)ccc21`, the EC50 was over 200 µM and the IC50 is over 200 µM.
Take `C=C1CC2(CCOc3ccc(Cl)cc32)OC1=O` (centres undefined): the EC50 was over 372 µM and the concentration for half-maximal inhibition (IC50) amounted to 0.977 µM.
For `C/C=C1\[C@H]2C=C(C)C[C@@]1(N)c1ccc(=O)[nH]c1[C@@H]2O` the same measures were over 479 µM and over 479 µM.
For the compound `Cc1cn(C(C)OCCN(O)C(=O)Oc2ccccc2)c(=O)[nH]c1=O` (centres undefined), the EC50 is over 200 µM and the half-inhibitory concentration (IC50) was over 200 µM.
Turning to `Cc1cc(C)n(C2OC(CO)C(O)C(O)C2O)c(=S)c1C#N` (centres undefined), the EC50 was over 200 µM and the half-inhibitory concentration (IC50) was over 200 µM.
With `CCCCCCCCCCCCS(=O)(=O)O`, the outcome was inactive.
On to `CC(C)=CC(=O)N(C)C1C2CN3CCC(O2)C13` (centres undefined), for which the outcome was inactive.
Consider `COc1cccc(N2C(=O)c3c(c4[nH]c5ccccc5c4c4ccc(C(C)(C)C)cc34)C2=O)c1`, for which the EC50 is over 11.5 µM and the concentration for half-maximal inhibition (IC50) was over 11.5 µM.
For the compound `O=C(NCCOC(=O)OCCNC(=O)NC1CCCCC1)NC1CCCCC1`, the EC50 was over 200 µM and the concentration for half-maximal inhibition (IC50) is over 200 µM.
For the compound `C/C=C(/CCCCCOCOCCOC)[Si](C)(C)C`, the EC50 was over 324 µM and the 50% inhibitory concentration (IC50) is over 324 µM.
`Cc1c(/C=C2\CC/C(=C\c3[nH]c(C(=O)OC(C)(C)C)c(C)c3C)C2=O)[nH]c(C(=O)OC(C)(C)C)c1C`: the outcome was inactive.
